In patent US7728035B2, “Ester derivatives of rhein and their therapeutic use” (Sosei R&D Ltd., priority 2004, dated 2010):

Experiments:
[1] = system: cytokine production; test: in vitro cytokine production (cellular assay); assay type: cell-based; details: assay not described
[2] = system: T-cell proliferation; test: in vitro T-cell proliferation (cellular assay); assay type: cell-based; details: assay not described
[3] = system: TNFα and IL-1β levels; test: LPS Mouse Assay; assay type: in vivo, Balb-c mice
Method: 7 week old Balb-c mice (n=8) fed and watered ad libitum were dosed at time zero with the compound of Example 1 at 3, 30 and 300 mg/kg in a 1% methylcellulose vehicle by oral gavage (10 ml/kg). 30 minutes after drug treatment mice were intraperitoneally administered with 1 mg/kg LPS (5 ml/kg in normal saline). 2 hours post-LPS challenge blood samples were collected by cardiac puncture under isoflurane anaesthesia. Blood samples were allowed to clot at room temperature for 10 minutes and then put on ice until spun at 6000 g for 3 minutes at 4° C. and then stored at −20° C. until analysis by ELISA for TNFα and IL-1β levels. TNFα and IL-1β levels were reported as pg/ml of serum (mean±SEM) significance was evaluated by a Dunnett's test followed by a Kruskal-Wallis one way analysis followed by a Dunn's test.

[4] = system: clinical signs induced in the EAE model; test: Experimental Autoimmune Encephalitis (EAE); assay type: in vivo, Male Lewis rats; details: 150 mg/kg orally twice a day from the day of inoculation; scored daily from day 7 post-inoculation
Method: Experimental Autoimmune Encephalitis (EAE)
Male Lewis rats (250-290 g) (n=10) were injected into both rear foot-pad with 0.1 ml of an emulsion containing equal parts of guinea-pig spinal cord, phosphate buffered saline and incomplete Freund's adjuvant with 8 mg/ml Mycobacterium tuberculosis H37Ra. The compound of Example 1 (150 mg/kg) was dosed orally in a 10% acacia gum vehicle (1 ml/kg) twice a day from the day of inoculation.
Body weights and neurological scores were observed daily from day 7 post-inoculation. The total daily score was calculated for each group and plotted over time. Non-parametric statistical analyses (Kruskal-Wallis) one-way analysis, followed by a Dunn's test, were employed.

| SMILES | inhibition of cytokine production [1] | inhibition of T-cell proliferation [2] | efficacy in the LPS mouse model (summary statement) ([3]; mouse, in vivo) | reduction of TNFα levels post-LPS insult ([3]; serum, ELISA, 3, 30 and 300 mg/kg by oral gavage 30 minutes before 1 mg/kg LPS i.p., blood 2 hours post-LPS, all three doses, dose-dependant) | reduction of IL-1β levels post-LPS ([3]; serum, ELISA, oral gavage 30 minutes before 1 mg/kg LPS i.p., blood 2 hours post-LPS, at the top two doses (30 and 300 mg/kg)) | efficacy on clinical signs (neurological scores) in the EAE model [4] |
| --- | --- | --- | --- | --- | --- | --- |
| O=C(O)c1cc(O)c2c(c1)C(=O)c1cccc(O)c1C2=O [rhein, 1,8-dihydroxyanthraquinone-3-carboxylic acid] | fail to produce a response | fail to produce a response | – | – | – | – |
| O=C(O)c1cc(OC(=O)C2CCOCC2)c2c(c1)C(=O)c1cccc(OC(=O)C3CCOCC3)c1C2=O [Example 1, 4,5-Bis(tetrahydropyran-4-carbonyloxy)-9,10-dioxo-dihydroanthracene-2-carboxylic acid] | – | – | efficacy | significant efficacy on reducing TNFα levels | reduced IL-1β levels | significant efficacy |
